Columns and labels:
human Gal-3 (hGal-3) = human Gal-3 (hGal-3) (Homo sapiens (Human), UniProt P17931); assay: Competitive binding assay: biotinylated hGal-3 binding to microplate-adsorbed asialofetuin (ASF); settings: Activity on hGal-3; binding of biotinylated hGal-3 to ASF-coated plates; mean values
Description: (§1) Evaluation of Compound Inhibitory Activity (IC50)
The inhibitory activity of compounds is determined in competitive binding assays. […] Alternatively, and preferably, a human Gal-1 version in which all six cysteines are substituted by serines may be used.
Briefly, compounds are serially diluted in DMSO (working dilutions).
(§2) Plates are incubated for 3 hours at 4° C. then washed with cold assay buffer (3×50 uL), incubated for 1 hour with 25 μL/well of a streptavidin-peroxidases solution (diluted in assay buffer to 80 ng/mL) at 4° C., followed by further washing steps with assay buffer (3×50 uL). Finally, 25 μL/well of ABTS substrate is added.
(§3) The calculated IC50 values may fluctuate depending on the daily assay performance. Fluctuations of this kind are known to those skilled in the art. IC50 values from several measurements are given as mean values.

human Gal-1 (hGal-1) = assay: Competitive binding assay: biotinylated hGal-1 binding to microplate-adsorbed asialofetuin (ASF); settings: Activity on hGal-1; binding of biotinylated hGal-1 to ASF-coated plates; mean values
Description: as §1
The inhibitory activity of compounds is determined in competitive binding assays. This spectrophotometric assay measures the binding of biotinylated human Gal-3 (hGal-3) or human Gal-1 (hGAl-1), respectively, to a microplate-adsorbed glycoprotein, asialofetuin (ASF) (Proc Natl Acad Sci USA. 2013 Mar. 26; 110(13):5052-7.). Alternatively, and preferably, a human Gal-1 version in which all six cysteines are substituted by serines may be used.
Briefly, compounds are serially diluted in DMSO (working dilutions). ASF-coated 384 well pates are supplemented with 22.8 μL/well of biotinylated hGal-3 or hGal-1 in assay buffer (i.e. 300-1000 ng/mL biotinylated hGal-3 or hGal-1) to which 1.2 μL of compound working dilutions are added and mixed.
as §2, with “added. OD (410 nm) is recorded after 30 to 45 min and IC50 values are calculated.” for “added.”
as §3

human Gal-1 (hGal-1), sequence (P09382 2-135 limits assumed): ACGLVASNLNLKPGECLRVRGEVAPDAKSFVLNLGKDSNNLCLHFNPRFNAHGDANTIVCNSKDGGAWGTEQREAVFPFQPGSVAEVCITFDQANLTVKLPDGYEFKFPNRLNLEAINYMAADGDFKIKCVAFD
human Gal-3 (hGal-3), sequence (P17931 whole entry): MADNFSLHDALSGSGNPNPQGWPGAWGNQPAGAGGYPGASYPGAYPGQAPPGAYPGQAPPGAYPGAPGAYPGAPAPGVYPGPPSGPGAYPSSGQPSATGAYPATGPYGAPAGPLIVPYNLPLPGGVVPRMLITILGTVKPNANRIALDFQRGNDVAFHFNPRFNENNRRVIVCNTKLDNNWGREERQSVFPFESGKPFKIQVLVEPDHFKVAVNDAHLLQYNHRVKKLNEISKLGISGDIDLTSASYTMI

O=C([C@@H]1O[C@H](CO)[C@H](O)[C@H](n2cc(-c3cc(F)c(F)c(F)c3)nn2)[C@H]1O)N(Cc1cnoc1)[C@H]1CCCC[C@@H]1O [Example 16, (2R,3R,4S,5R,6R)-3,5-dihydroxy-N-((1S,2S)-2-hydroxycyclohexyl)-6-(hydroxymethyl)-N-(isoxazol-4-ylmethyl)-4-(4-(3,4,5-trifluorophenyl)-1H-1,2,3-triazol-1-yl)tetrahydro-2H-pyran-2-carboxamide]
IC50 (human Gal-3 (hGal-3)): 476 nM
IC50 (human Gal-1 (hGal-1)): 28300 nM

O=C([C@@H]1O[C@H](CO)[C@H](O)[C@H](n2cc(-c3cc(F)c(F)c(F)c3)nn2)[C@H]1O)N(Cc1ccc(Cl)o1)[C@H]1CCCC[C@@H]1O [Example 17, (2R,3R,4S,5R,6R)-N-((5-chlorofuran-2-yl)methyl)-3,5-dihydroxy-N-((1S,2S)-2-hydroxycyclohexyl)-6-(hydroxymethyl)-4-(4-(3,4,5-trifluorophenyl)-1H-1,2,3-triazol-1-yl)tetrahydro-2H-pyran-2-carboxamide]
IC50 (human Gal-3 (hGal-3)): 281 nM
IC50 (human Gal-1 (hGal-1)): 23100 nM

O=C([C@@H]1O[C@H](CO)[C@H](O)[C@H](n2cc(-c3cc(F)c(F)c(F)c3)nn2)[C@H]1O)N(Cc1cnsc1)[C@H]1CCCC[C@@H]1O [Example 18, (2R,3R,4S,5R,6R)-3,5-dihydroxy-N-((1S,2S)-2-hydroxycyclohexyl)-6-(hydroxymethyl)-N-(isothiazol-4-ylmethyl)-4-(4-(3,4,5-trifluorophenyl)-1H-1,2,3-triazol-1-yl)tetrahydro-2H-pyran-2-carboxamide]
IC50 (human Gal-3 (hGal-3)): 179 nM
IC50 (human Gal-1 (hGal-1)): 11600 nM

O=C([C@@H]1O[C@H](CO)[C@H](O)[C@H](n2cc(-c3cc(F)c(F)c(F)c3)nn2)[C@H]1O)N(Cc1csc(Br)n1)[C@H]1CCCC[C@@H]1O [Example 20, (2R,3R,4S,5R,6R)-N-((2-bromothiazol-4-yl)methyl)-3,5-dihydroxy-N-((1S,2S)-2-hydroxycyclohexyl)-6-(hydroxymethyl)-4-(4-(3,4,5-trifluorophenyl)-1H-1,2,3-triazol-1-yl)tetrahydro-2H-pyran-2-carboxamide]
IC50 (human Gal-3 (hGal-3)): 352 nM
IC50 (human Gal-1 (hGal-1)): 11700 nM

O=C([C@@H]1O[C@H](CO)[C@H](O)[C@H](n2cc(-c3cc(F)c(F)c(F)c3)nn2)[C@H]1O)N(Cc1cnc(N2CCOCC2)s1)[C@H]1CCCC[C@@H]1O [Example 21]
IC50 (human Gal-3 (hGal-3)): 112 nM
IC50 (human Gal-1 (hGal-1)): 10700 nM

O=C([C@@H]1O[C@H](CO)[C@H](O)[C@H](n2cc(-c3cc(F)c(F)c(F)c3)nn2)[C@H]1O)N(Cc1ccc(Cl)s1)[C@H]1CCCC[C@@H]1O [Example 22, (2R,3R,4S,5R,6R)-N-((5-chlorothiophen-2-yl)methyl)-3,5-dihydroxy-N-((1S,2S)-2-hydroxycyclohexyl)-6-(hydroxymethyl)-4-(4-(3,4,5-trifluorophenyl)-1H-1,2,3-triazol-1-yl)tetrahydro-2H-pyran-2-carboxamide]
IC50 (human Gal-3 (hGal-3)): 167 nM
IC50 (human Gal-1 (hGal-1)): 86600 nM

O=C([C@@H]1O[C@H](CO)[C@H](O)[C@H](n2cc(-c3cc(F)c(F)c(F)c3)nn2)[C@H]1O)N(Cc1ncc(Cl)s1)[C@H]1CCCC[C@@H]1O [Example 23, (2R,3R,4S,5R,6R)-N-((5-chlorothiazol-2-yl)methyl)-3,5-dihydroxy-N-((1S,2S)-2-hydroxycyclohexyl)-6-(hydroxymethyl)-4-(4-(3,4,5-trifluorophenyl)-1H-1,2,3-triazol-1-yl)tetrahydro-2H-pyran-2-carboxamide]
IC50 (human Gal-3 (hGal-3)): 403 nM
IC50 (human Gal-1 (hGal-1)): 22700 nM

CO[C@@H]1[C@@H](n2cc(-c3cc(F)c(F)c(F)c3)nn2)[C@@H](O)[C@@H](CO)O[C@H]1C(=O)N(Cc1ncccc1C(F)(F)F)[C@H]1CCCC[C@@H]1O [Example 25, (2R,3R,4S,5R,6R)-5-hydroxy-N-((1S,2S)-2-hydroxycyclohexyl)-6-(hydroxymethyl)-3-methoxy-N-((3-(trifluoromethyl)pyridin-2-yl)methyl)-4-(4-(3,4,5-trifluorophenyl)-1H-1,2,3-triazol-1-yl)tetrahydro-2H-pyran-2-carboxamide]
IC50 (human Gal-3 (hGal-3)): 280 nM
IC50 (human Gal-1 (hGal-1)): 4920 nM

CO[C@@H]1[C@@H](n2cc(-c3cc(F)c(F)c(F)c3)nn2)[C@@H](O)[C@@H](CO)O[C@H]1C(=O)N(Cc1cccnc1C(F)(F)F)[C@H]1CCCC[C@@H]1O [Example 26, (2R,3R,4S,5R,6R)-5-hydroxy-N-((1S,2S)-2-hydroxycyclohexyl)-6-(hydroxymethyl)-3-methoxy-N-((2-(trifluoromethyl)pyridin-3-yl)methyl)-4-(4-(3,4,5-trifluorophenyl)-1H-1,2,3-triazol-1-yl)tetrahydro-2H-pyran-2-carboxamide]
IC50 (human Gal-3 (hGal-3)): 159 nM
IC50 (human Gal-1 (hGal-1)): 338 nM

O=C([C@@H]1O[C@H](CO)[C@H](O)[C@H](n2cc(-c3cc(F)c(F)c(F)c3)nn2)[C@H]1O)N(Cc1cncnc1C(F)(F)F)[C@H]1CCCC[C@@H]1O [Example 27, (2R,3R,4S,5R,6R)-3,5-dihydroxy-N-((1S,2S)-2-hydroxycyclohexyl)-6-(hydroxymethyl)-N-((4-(trifluoromethyl)pyrimidin-5-yl)methyl)-4-(4-(3,4,5-trifluorophenyl)-1H-1,2,3-triazol-1-yl)tetrahydro-2H-pyran-2-carboxamide]
IC50 (human Gal-3 (hGal-3)): 264 nM
IC50 (human Gal-1 (hGal-1)): 3200 nM

COc1ncnc(OC)c1CN(C(=O)[C@@H]1O[C@H](CO)[C@H](O)[C@H](n2cc(-c3cc(F)c(F)c(F)c3)nn2)[C@H]1O)[C@H]1CCCC[C@@H]1O [Example 28, (2R,3R,4S,5R,6R)-N-((4,6-dimethoxypyrimidin-5-yl)methyl)-3,5-dihydroxy-N-((1S,2S)-2-hydroxycyclohexyl)-6-(hydroxymethyl)-4-(4-(3,4,5-trifluorophenyl)-1H-1,2,3-triazol-1-yl)tetrahydro-2H-pyran-2-carboxamide]
IC50 (human Gal-3 (hGal-3)): 165 nM
IC50 (human Gal-1 (hGal-1)): 3970 nM

Cc1ncncc1CN(C(=O)[C@@H]1O[C@H](CO)[C@H](O)[C@H](n2cc(-c3cc(F)c(F)c(F)c3)nn2)[C@H]1O)[C@H]1CCCC[C@@H]1O [Example 29, (2R,3R,4S,5R,6R)-3,5-dihydroxy-N-((1S,2S)-2-hydroxycyclohexyl)-6-(hydroxymethyl)-N-((4-methylpyrimidin-5-yl)methyl)-4-(4-(3,4,5-trifluorophenyl)-1H-1,2,3-triazol-1-yl)tetrahydro-2H-pyran-2-carboxamide]
IC50 (human Gal-3 (hGal-3)): 232 nM
IC50 (human Gal-1 (hGal-1)): 4410 nM

CO[C@@H]1[C@@H](n2cc(-c3cc(F)c(F)c(F)c3)nn2)[C@@H](O)[C@@H](CO)O[C@H]1C(=O)N(Cc1nc[nH]c1C)[C@H]1CCCC[C@@H]1O [Example 30, (2R,3R,4S,5R,6R)-5-hydroxy-N-((1S,2S)-2-hydroxycyclohexyl)-6-(hydroxymethyl)-3-methoxy-N-((5-methyl-1H-imidazol-4-yl)methyl)-4-(4-(3,4,5-trifluorophenyl)-1H-1,2,3-triazol-1-yl)tetrahydro-2H-pyran-2-carboxamide]
IC50 (human Gal-3 (hGal-3)): 575 nM
IC50 (human Gal-1 (hGal-1)): 10400 nM

CO[C@@H]1[C@@H](n2cc(-c3cc(F)c(F)c(F)c3)nn2)[C@@H](O)[C@@H](CO)O[C@H]1C(=O)N(Cc1sncc1Cl)[C@H]1CCCC[C@@H]1O [Example 31, (2R,3R,4S,5R,6R)-N-((4-chloroisothiazol-5-yl)methyl)-5-hydroxy-N-((1S,2S)-2-hydroxycyclohexyl)-6-(hydroxymethyl)-3-methoxy-4-(4-(3,4,5-trifluorophenyl)-1H-1,2,3-triazol-1-yl)tetrahydro-2H-pyran-2-carboxamide]
IC50 (human Gal-3 (hGal-3)): 311 nM
IC50 (human Gal-1 (hGal-1)): 1480 nM

CO[C@@H]1[C@@H](n2cc(-c3cc(F)c(F)c(F)c3)nn2)[C@@H](O)[C@@H](CO)O[C@H]1C(=O)N(Cc1ccnn1C)[C@H]1CCCC[C@@H]1O [Example 32]
IC50 (human Gal-3 (hGal-3)): 122 nM
IC50 (human Gal-1 (hGal-1)): 905 nM

CO[C@@H]1[C@@H](n2cc(-c3cc(F)c(F)c(F)c3)nn2)[C@@H](O)[C@@H](CO)O[C@H]1C(=O)N(Cc1sccc1C)[C@H]1CCCC[C@@H]1O [Example 33, (2R,3R,4S,5R,6R)-5-hydroxy-N-((1S,2S)-2-hydroxycyclohexyl)-6-(hydroxymethyl)-3-methoxy-N-((3-methylthiophen-2-yl)methyl)-4-(4-(3,4,5-trifluorophenyl)-1H-1,2,3-triazol-1-yl)tetrahydro-2H-pyran-2-carboxamide]
IC50 (human Gal-3 (hGal-3)): 127 nM
IC50 (human Gal-1 (hGal-1)): 962 nM

CO[C@@H]1[C@@H](n2cc(-c3cc(F)c(F)c(F)c3)nn2)[C@@H](O)[C@@H](CO)O[C@H]1C(=O)N(Cc1sccc1C)[C@H]1CCCC[C@@H]1O [Example 34]
IC50 (human Gal-3 (hGal-3)): 69 nM
IC50 (human Gal-1 (hGal-1)): 863 nM

CO[C@@H]1[C@@H](n2cc(-c3cc(F)c(F)c(F)c3)nn2)[C@@H](O)[C@@H](CO)O[C@H]1C(=O)N(Cc1sccc1Cl)[C@H]1CCCC[C@@H]1O [Example 35, (2R,3R,4S,5R,6R)-N-((3-chlorothiophen-2-yl)methyl)-5-hydroxy-N-((1S,2S)-2-hydroxycyclohexyl)-6-(hydroxymethyl)-3-methoxy-4-(4-(3,4,5-trifluorophenyl)-1H-1,2,3-triazol-1-yl)tetrahydro-2H-pyran-2-carboxamide]
IC50 (human Gal-3 (hGal-3)): 210 nM
IC50 (human Gal-1 (hGal-1)): 1630 nM
